Reference: patent publication US9809598B2 (Merck Patent GmbH, priority 2014, dated 2017)
Read-outs that look alike come from different tables or passages of the source.

How the values were obtained:
TNKS1 = target: T1, TNKS1 (Homo sapiens, UniProt O95271); experiment: TNKS1 activity ELISA (autoparsylation assay); format: biochemical; details: GST-tagged Tnks-1 (1023-1327 aa)
T1 construct: GST-tagged Tnks-1 (1023-1327 aa, prepared in-house); made in house
Method in brief: (§1)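 GST-tagged TNKS1 or TNKS2 captured on glutathione plates and allowed to auto-PARsylate with biotinylated NAD with or without compound. Biotin-ADP-ribosylated enzyme detected by streptavidin-HRP and luminescence; IC50 relative to inhibitor-free reaction.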

TNKS2 = target: T2, TNKS2 (Homo sapiens, UniProt Q9H2K2); experiment: TNKS2 activity ELISA (autoparsylation assay); format: biochemical
T2 construct: GST-tagged Tnks-2 (873-1166 aa, prepared in-house); made in house
T2 sequence (Q9H2K2 873-1166): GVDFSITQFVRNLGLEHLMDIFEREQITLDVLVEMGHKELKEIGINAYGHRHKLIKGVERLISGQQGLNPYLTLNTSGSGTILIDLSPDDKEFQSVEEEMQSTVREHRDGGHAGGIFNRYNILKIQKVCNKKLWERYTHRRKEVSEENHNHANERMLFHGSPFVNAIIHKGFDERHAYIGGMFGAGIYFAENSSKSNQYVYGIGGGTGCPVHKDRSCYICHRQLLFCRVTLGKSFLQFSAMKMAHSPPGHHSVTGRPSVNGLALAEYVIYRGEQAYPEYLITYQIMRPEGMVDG
Method in brief: as §1

Tankyrases = details: read-out: EC50 [M] TNKS cellular assay; DLD1 cells, 24 hours, Axin2 increase
Protocol: Measurement of Cellular Inhibition of Tankyrase
Cells of the colon carcinoma cell line DLD1 are plated in 96 well plates with 1.5×10^4 cells per well. Next day, cells are treated with a serial dilution of test compound in seven steps as triplicates with a final DMSO concentration of 0.3%. […] The amount of isolated Axin2 protein is determined in a Luminex^200 machine (Luminex Corporation) according to the manufacturer's instruction by counting 100 events per well. […] As controls cells are treated with solvent alone (neutral control) and with a Tankyrase reference inhibitor IWR-2 (3E−06 M) which refers as control for maximum increase of Axin2. For analysis, the obtained data are normalized against the untreated solvent control and fitted for determination of the EC50 values using the Assay Explorer software (Accelrys).

PARP-1 = target: T3, PARP-1 (Homo sapiens, UniProt P09874); experiment: PARP-1 autoparsylation assay (HTRF); format: biochemical; details: His-tagged Parp-1, autoparsylation HTRF
T3 construct: purchased Enzo Life Sciences GmbH, Lörrach, Germany
T3 sequence (P09874 whole entry): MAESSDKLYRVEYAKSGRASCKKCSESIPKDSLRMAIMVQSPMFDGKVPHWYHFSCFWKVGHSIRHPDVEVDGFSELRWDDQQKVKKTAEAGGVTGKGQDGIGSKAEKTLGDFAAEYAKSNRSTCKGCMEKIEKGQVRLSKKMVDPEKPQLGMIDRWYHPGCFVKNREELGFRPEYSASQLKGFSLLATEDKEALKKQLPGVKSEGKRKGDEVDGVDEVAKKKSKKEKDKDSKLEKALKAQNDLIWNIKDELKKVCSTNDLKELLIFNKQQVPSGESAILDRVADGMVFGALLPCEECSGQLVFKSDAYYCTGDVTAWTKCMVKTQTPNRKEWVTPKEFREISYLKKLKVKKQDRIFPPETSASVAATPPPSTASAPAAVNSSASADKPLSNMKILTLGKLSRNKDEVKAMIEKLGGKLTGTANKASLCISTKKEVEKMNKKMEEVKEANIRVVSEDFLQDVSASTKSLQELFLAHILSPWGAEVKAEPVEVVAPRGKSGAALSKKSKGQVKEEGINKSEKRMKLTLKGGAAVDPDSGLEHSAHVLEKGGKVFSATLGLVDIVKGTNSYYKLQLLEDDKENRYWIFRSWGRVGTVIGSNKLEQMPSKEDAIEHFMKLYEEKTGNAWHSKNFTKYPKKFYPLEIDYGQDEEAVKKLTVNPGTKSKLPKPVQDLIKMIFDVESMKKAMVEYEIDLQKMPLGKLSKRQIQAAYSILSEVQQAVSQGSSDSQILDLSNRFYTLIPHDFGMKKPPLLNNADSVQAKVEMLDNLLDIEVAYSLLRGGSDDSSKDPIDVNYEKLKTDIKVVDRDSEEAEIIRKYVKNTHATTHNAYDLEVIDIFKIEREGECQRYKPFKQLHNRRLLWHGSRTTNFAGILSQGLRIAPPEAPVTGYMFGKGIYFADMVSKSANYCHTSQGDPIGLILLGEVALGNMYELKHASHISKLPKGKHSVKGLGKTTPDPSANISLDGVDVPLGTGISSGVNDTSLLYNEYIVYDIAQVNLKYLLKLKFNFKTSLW
Method in brief: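 His-tagged enzyme auto-modifies itself using biotinylated NAD/NAD; product detected by TR-FRET between cryptate anti-His antibody and Xlent-streptavidin, as emission ratio.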

[1] = GST-tagged Tnks-2 (873-1166 aa), read-out: IC50 [M] TNKS2 ELISA

T1 sequence (O95271 1023-1327): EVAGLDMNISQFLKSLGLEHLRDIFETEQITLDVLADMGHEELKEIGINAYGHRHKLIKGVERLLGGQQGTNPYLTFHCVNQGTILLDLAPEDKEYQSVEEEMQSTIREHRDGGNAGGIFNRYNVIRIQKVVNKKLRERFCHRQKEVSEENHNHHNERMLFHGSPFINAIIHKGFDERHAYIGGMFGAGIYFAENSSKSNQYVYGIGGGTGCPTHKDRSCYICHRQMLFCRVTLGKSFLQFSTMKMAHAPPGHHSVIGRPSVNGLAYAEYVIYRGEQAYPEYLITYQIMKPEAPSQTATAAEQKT

| SMILES | IC50 (TNKS1) [nM] | IC50 (TNKS2; [1]) [M] | EC50 (Tankyrases) [M] | IC50 (PARP-1) [µM] | IC50 (TNKS2) [M] |
| --- | --- | --- | --- | --- | --- |
| COc1ccc(C(=O)C2CCN(C(=O)CCCc3cn4c(C)ncc4c(=O)[nH]3)CC2)cc1 [Compound C33, 6-{4-[4-(4-Methoxy-benzoyl)-piperidin-1-yl]-4-oxo-butyl}-3-methyl-7H-imidazo[1,5-a]pyrazin-8-one] | 0.16 | 1.2e-10 | 1.5e-09 | 5.5 | – |
| COc1ccc(C(=O)C2CCN(C(=O)CCCc3cn4c(C)ccc4c(=O)[nH]3)CC2)cn1 [Compound C57, 3-{4-[4-(6-Methoxy-pyridine-3-carbonyl)-piperidin-1-yl]-4-oxo-butyl}-6-methyl-2H-pyrrolo[1,2-a]pyrazin-1-one] | 0.19 | – | 7.7e-10 | 0.00048 | 1.8e-10 |
| Cc1ccc2c(=O)[nH]c(CCCC(=O)N3CCC(Oc4ccc(C#N)cc4)CC3)cn12 [Compound C7, 4-{1-[4-(6-Methyl-1-oxo-1,2-dihydro-pyrrolo[1,2-a]pyrazin-3-yl)-butyryl]-piperidin-4-yloxy}-benzonitrile] | 2.6 | 2e-09 | 4.7e-08 | 1.8 | – |
| COc1ccc(C(=O)C2CCN(C(=O)CCCc3nc4c(C)csc4c(=O)[nH]3)CC2)cc1 [Compound C35, 2-{4-[4-(4-Methoxy-benzoyl)-piperidin-1-yl]-4-oxo-butyl}-7-methyl-3H-thieno-[3,2-d]pyrimidin-4-one] | 0.19 | 1.1e-10 | 4.2e-10 | 0.13 | – |
| N#Cc1cc(C2CCN(C(=O)CCCc3nn4cc(F)cc4c(=O)[nH]3)CC2)cnc1N [Compound C171, 6-Amino-1′-[4-(6-fluoro-4-oxo-3,4-dihydro-pyrrolo[2,1-f][1,2,4]triazin-2-yl)-butyryl]-1′,2′,3′,4′,5′,6′-hexahydro-[3,4′]bipyridinyl-5-carbonitrile] | 1.7 | 3.6e-09 | 4.6e-08 | 6.3 | – |
| CCn1cc(C(=O)C2CCN(C(=O)CCCc3nn4cc(C)cc4c(=O)[nH]3)CC2)cn1 [Compound C233, 2-{4-[4-(1-Ethyl-1H-pyrazole-4-carbonyl)-piperidin-1-yl]-4-oxo-butyl}-6-methyl-3H-pyrrolo[2,1-f][1,2,4]triazin-4-one] | 1.2 | 2.3e-09 | 5.4e-08 | 5.3 | – |
| O=C(c1ccc(Cl)cc1)C1CCN(C(=O)CCCc2nn3cccc3c(=O)[nH]2)CC1 [Compound C237, 2-{4-[4-(4-Chloro-benzoyl)-piperidin-1-yl]-4-oxo-butyl}-3H-pyrrolo[2,1-f][1,2,4]triazin-4-one] | 0.66 | 3e-10 | 1e-08 | 10 | – |
| N#Cc1ccc(OC2CCN(C(=O)CCCc3cn4cccc4c(=O)[nH]3)CC2)cc1 [Compound C5, 4-{1-[4-(1-Oxo-1,2-dihydro-pyrrolo[1,2-a]pyrazin-3-yl)-butyryl]-piperidin-4-yloxy}-benzonitrile] | 0.13 | 8.8e-09 | 1.2e-07 | 4.3 | – |
| Cn1ncc2c(=O)[nH]c(CCCC(=O)N3CCC(C(=O)c4ccc(C(C)(C)O)cc4)CC3)nc21 [Compound C50, 6-{4-{4-[4-(1-Hydroxy-1-methyl-ethyl)benzoyl]-1-piperidyl}-4-oxo-butyl}-1-methyl-5H-pyrazolo[3,4-d]pyrimidin-4-one] | 11 | 4e-09 | 3.8e-07 | 23 | – |
| COc1ccc(C(=O)C2CCN(C(=O)CCCc3cn4cc(C)cc4c(=O)[nH]3)CC2)cc1 [Compound C8, 3-{4-[4-(4-Methoxy-benzoyl)-piperidin-1-yl]-4-oxo-butyl}-7-methyl-2H-pyrrolo[1,2-a]pyrazin-1-one] | < 0.1 | 1.6e-10 | 2.8e-09 | 2.9 | – |
| COc1ccc(C(=O)C2CCN(C(=O)CCCc3nc4c(ccn4C)c(=O)[nH]3)CC2)cc1 [Compound C40, 2-{4-[4-(4-Methoxy-benzoyl)-piperidin-1-yl]-4-oxo-butyl}-7-methyl-3,7-dihydro-pyrrolo[2,3-d]pyrimidin-4-one] | 0.17 | < 1e-10 | 3.2e-09 | 1.6 | – |
